Test results reported in ChEMBL document CHEMBL1201862, “PubChem BioAssay data set” (2004).
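Following 48 hours of exposure in 96-well plates, responses at five concentrations were used to interpolate endpoints linearly. GI50: concentration for 50% inhibition of growth.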 Active and inactive are the calls of the source. Cut-off read from the data, not from the text of the source: active = GI50 up to about 1.1 µM and inactive = higher.

Key:
Experiment in all cases: NCI anticancer screen, dose series, 48 h
HOP-92 = test system: HOP-92
HL-60 = test system: HL-60
OVCAR-8 = test system: OVCAR-8
NCI-H226 = test system: NCI-H226
MOLT-4 = test system: MOLT-4
BT-549 = test system: BT-549
EKVX = test system: EKVX
HT-29 = test system: HT-29
NCI-H522 = test system: NCI-H522
SNB-75 = test system: SNB-75
NCI-H460 = test system: NCI-H460
OVCAR-4 = test system: OVCAR-4
LOX IMVI = test system: LOX IMVI
COLO 205 = test system: COLO 205
Malme-3M = test system: Malme-3M
UO-31 = test system: UO-31
TK-10 = test system: TK-10
NCI-H23 = test system: NCI-H23
RPMI-8226 = test system: RPMI-8226
CCRF-CEM = test system: CCRF-CEM

| SMILES | GI50 (HOP-92) | GI50 (HL-60) | GI50 (OVCAR-8) | GI50 (NCI-H226) | GI50 (MOLT-4) | GI50 (BT-549) | GI50 (EKVX) | GI50 (HT-29) | GI50 (NCI-H522) | GI50 (SNB-75) | GI50 (NCI-H460) | GI50 (OVCAR-4) | GI50 (LOX IMVI) | GI50 (COLO 205) | GI50 (Malme-3M) | GI50 (UO-31) | GI50 (TK-10) | GI50 (NCI-H23) | GI50 (RPMI-8226) | GI50 (CCRF-CEM) |
| --- | --- | --- | --- | --- | --- | --- | --- | --- | --- | --- | --- | --- | --- | --- | --- | --- | --- | --- | --- | --- |
| CN(C)/C=N/S(=O)(=O)c1nn2c(C=O)c(-c3ccc(-c4ccc([N+](=O)[O-])cc4)o3)nc2s1 | 1.84 µM (inactive) | 0.807 µM (active) | 8.04 µM (inactive) | 20.5 µM (inactive) | 1.19 µM (inactive) | 1.72 µM (inactive) | 5.07 µM (inactive) | 0.611 µM (active) | 1.38 µM (inactive) | 9.18 µM (inactive) | 1.63 µM (inactive) | 3.54 µM (inactive) | 2.33 µM (inactive) | 1.99 µM (inactive) | 1.78 µM (inactive) | 1.91 µM (inactive) | 3.39 µM (inactive) | 3.1 µM (inactive) | 0.931 µM (active) | 0.426 µM (active) |
| COc1ccc(-c2cc(-c3ccc(Nc4ccnc5cc(C(F)(F)F)ccc45)cc3)[nH]c(=O)c2C#N)c2ccccc12 | > 100 µM (inactive) | > 100 µM (inactive) | > 46.3 µM (inactive) | > 55.3 µM (inactive) | > 100 µM (inactive) | > 58.5 µM (inactive) | > 100 µM (inactive) | > 25.7 µM (inactive) | > 100 µM (inactive) | 11.2 µM (inactive) | > 100 µM (inactive) | > 46 µM (inactive) | 24.2 µM (inactive) | > 37.7 µM (inactive) | > 41.2 µM (inactive) | > 35.6 µM (inactive) | 26.9 µM (inactive) | 39.5 µM (inactive) | > 100 µM (inactive) | > 20.9 µM (inactive) |
| O=C(NCCCCCN1CCC2(CCCCC2)CC1)C(C1CCCCC1)C1CCCCC1 | 3.73 µM (inactive) | 1.56 µM (inactive) | 2.72 µM (inactive) | 3.67 µM (inactive) | 1.9 µM (inactive) | 5.87 µM (inactive) | 3.6 µM (inactive) | 1.97 µM (inactive) | 4.17 µM (inactive) | 4.12 µM (inactive) | 2.45 µM (inactive) | 3.59 µM (inactive) | 2.7 µM (inactive) | 1.45 µM (inactive) | 1.75 µM (inactive) | 3.61 µM (inactive) | 4.71 µM (inactive) | 3.1 µM (inactive) | 2.19 µM (inactive) | 2.99 µM (inactive) |
| Cc1cc[n+]2c(c1)-c1cc(C)cc[n+]1CC2 | > 100 µM (inactive) | > 100 µM (inactive) | > 66.5 µM (inactive) | > 100 µM (inactive) | > 100 µM (inactive) | > 100 µM (inactive) | > 100 µM (inactive) | 34.7 µM (inactive) | 29.4 µM (inactive) | > 100 µM (inactive) | > 100 µM (inactive) | > 100 µM (inactive) | > 100 µM (inactive) | 22.6 µM (inactive) | 99.5 µM (inactive) | > 100 µM (inactive) | > 100 µM (inactive) | 84.5 µM (inactive) | > 100 µM (inactive) | > 22.7 µM (inactive) |
| O=C(NCP(=O)(c1ccccc1)c1ccccc1)OCc1ccccc1 | 40 µM (inactive) | > 100 µM (inactive) | > 100 µM (inactive) | > 100 µM (inactive) | > 100 µM (inactive) | > 100 µM (inactive) | > 100 µM (inactive) | > 100 µM (inactive) | 39.4 µM (inactive) | 6.65 µM (inactive) | > 100 µM (inactive) | 43.5 µM (inactive) | > 100 µM (inactive) | > 100 µM (inactive) | > 100 µM (inactive) | > 100 µM (inactive) | > 100 µM (inactive) | > 100 µM (inactive) | > 100 µM (inactive) | > 100 µM (inactive) |
| O=C1C2C3C=CC(C2C(=O)N1CN1CCOCC1)C1C2C(=O)N(CN4CCOCC4)C(=O)C2C31 (stereo not given) | > 62.1 µM (inactive) | > 40.6 µM (inactive) | > 48.3 µM (inactive) | > 47.3 µM (inactive) | 18.2 µM (inactive) | > 100 µM (inactive) | 97.1 µM (inactive) | > 60 µM (inactive) | > 40 µM (inactive) | > 47.3 µM (inactive) | > 37.5 µM (inactive) | > 43.9 µM (inactive) | > 43.5 µM (inactive) | > 43 µM (inactive) | > 100 µM (inactive) | > 54 µM (inactive) | > 55.3 µM (inactive) | > 47.9 µM (inactive) | 34.6 µM (inactive) | 18.7 µM (inactive) |
| COc1ccc(C2OC(=O)c3ccc4ccccc4c32)c(C)c1 (stereo not given) | 10.9 µM (inactive) | 3.69 µM (inactive) | 14.2 µM (inactive) | 13.9 µM (inactive) | 7.73 µM (inactive) | 19.5 µM (inactive) | 18.8 µM (inactive) | 3.78 µM (inactive) | 4.42 µM (inactive) | 6.97 µM (inactive) | 4.18 µM (inactive) | 19.6 µM (inactive) | 7.89 µM (inactive) | 4.36 µM (inactive) | 8.18 µM (inactive) | 8.97 µM (inactive) | 15.2 µM (inactive) | 9.53 µM (inactive) | 11.1 µM (inactive) | 22.4 µM (inactive) |
| CC(=N\N=C\c1ccccn1)/C(C)=N/N=C(C)/C(C)=N/N=C(C)/C(C)=N/N=C/c1ccccn1 | > 100 µM (inactive) | > 100 µM (inactive) | > 100 µM (inactive) | > 100 µM (inactive) | > 100 µM (inactive) | > 100 µM (inactive) | > 100 µM (inactive) | > 100 µM (inactive) | > 100 µM (inactive) | > 100 µM (inactive) | > 100 µM (inactive) | > 100 µM (inactive) | > 100 µM (inactive) | > 100 µM (inactive) | > 100 µM (inactive) | > 100 µM (inactive) | > 100 µM (inactive) | > 100 µM (inactive) | > 100 µM (inactive) | 3.7 µM (inactive) |
| CC1(C)C(=O)/C(=C/c2ccccc2)C(C)(C)C1(C)C | > 40 µM (inactive) | 18.9 µM (inactive) | > 100 µM (inactive) | > 100 µM (inactive) | 56.2 µM (inactive) | 36.1 µM (inactive) | > 58.5 µM (inactive) | 40.1 µM (inactive) | 63.2 µM (inactive) | 46.8 µM (inactive) | 62.7 µM (inactive) | > 75.3 µM (inactive) | 35.4 µM (inactive) | > 100 µM (inactive) | > 71.3 µM (inactive) | 52.6 µM (inactive) | 46.6 µM (inactive) | 70.6 µM (inactive) | 31.4 µM (inactive) | 28.4 µM (inactive) |
| OCC1OC(n2cnc3c(/C=C(/O)c4ccccc4)ncnc32)C(O)C1O (stereo not given) | > 25.1 µM (inactive) | 0.165 µM (active) | 2.17 µM (inactive) | 5.38 µM (inactive) | 1.71 µM (inactive) | 6.08 µM (inactive) | 19.1 µM (inactive) | 3.1 µM (inactive) | 2.16 µM (inactive) | 0.7 µM (active) | 0.594 µM (active) | 2.84 µM (inactive) | 1.63 µM (inactive) | 0.944 µM (active) | 5.33 µM (inactive) | 0.92 µM (active) | 0.516 µM (active) | 2.82 µM (inactive) | 1.38 µM (inactive) | 0.61 µM (active) |
